Holding throughout (assay): apparent dissociation constant (pKDapp, Kinobeads competition, Cheng-Prusoff corrected) (-log10 M); higher = tighter binding
The target of one test is ACVR2A (UniProt P27037). The settings on record: affinity matrix / lysate: Kinobeads, mixed HEK293/K-562/placenta lysate.
The target in another test is CDK2 (UniProt P24941). The settings on record: affinity matrix / lysate: Kinobeads, mixed HEK293/K-562/placenta lysate.
A further test concerns the target CHEK1 (UniProt O14757). The note with it: affinity matrix / lysate: Kinobeads, mixed HEK293/K-562/placenta lysate.
A further test has as its target CRKRS (UniProt Q9NYV4). The settings on record: affinity matrix / lysate: Kinobeads, mixed HEK293/K-562/placenta lysate.
A further test addresses CSF1R (UniProt P07333). The note with it: affinity matrix / lysate: Kinobeads, mixed HEK293/K-562/placenta lysate.
Another test has as its target DAPK1 (UniProt P53355). The settings on record: affinity matrix / lysate: Kinobeads, mixed HEK293/K-562/placenta lysate.
In the next test the target is DYRK1A (UniProt Q13627). The settings on record: affinity matrix / lysate: Kinobeads, mixed HEK293/K-562/placenta lysate.
Another test has as its target EPHA1 (UniProt P21709). The note with it: affinity matrix / lysate: Kinobeads, mixed HEK293/K-562/placenta lysate.
The target of the next test is EPHB6 (UniProt O15197). The note with it: affinity matrix / lysate: Kinobeads, mixed HEK293/K-562/placenta lysate.
A further test concerns the target ERBB4 (UniProt Q15303). The settings on record: affinity matrix / lysate: Kinobeads, mixed HEK293/K-562/placenta lysate.
Another test has as its target FGFR1 (UniProt P11362). The settings on record: affinity matrix / lysate: Kinobeads, mixed HEK293/K-562/placenta lysate.
A further test deals with IRAK1 (UniProt P51617). The settings on record: affinity matrix / lysate: Kinobeads, mixed HEK293/K-562/placenta lysate.
The target of another test is MAP3K6 (UniProt O95382). The settings on record: affinity matrix / lysate: Kinobeads, mixed HEK293/K-562/placenta lysate.
The target of another test is MAPK11 (UniProt Q15759). The note with it: affinity matrix / lysate: Kinobeads, mixed HEK293/K-562/placenta lysate.
The next test concerns the target T1, PIK3CD (UniProt O00329).
T1 sequence (whole entry): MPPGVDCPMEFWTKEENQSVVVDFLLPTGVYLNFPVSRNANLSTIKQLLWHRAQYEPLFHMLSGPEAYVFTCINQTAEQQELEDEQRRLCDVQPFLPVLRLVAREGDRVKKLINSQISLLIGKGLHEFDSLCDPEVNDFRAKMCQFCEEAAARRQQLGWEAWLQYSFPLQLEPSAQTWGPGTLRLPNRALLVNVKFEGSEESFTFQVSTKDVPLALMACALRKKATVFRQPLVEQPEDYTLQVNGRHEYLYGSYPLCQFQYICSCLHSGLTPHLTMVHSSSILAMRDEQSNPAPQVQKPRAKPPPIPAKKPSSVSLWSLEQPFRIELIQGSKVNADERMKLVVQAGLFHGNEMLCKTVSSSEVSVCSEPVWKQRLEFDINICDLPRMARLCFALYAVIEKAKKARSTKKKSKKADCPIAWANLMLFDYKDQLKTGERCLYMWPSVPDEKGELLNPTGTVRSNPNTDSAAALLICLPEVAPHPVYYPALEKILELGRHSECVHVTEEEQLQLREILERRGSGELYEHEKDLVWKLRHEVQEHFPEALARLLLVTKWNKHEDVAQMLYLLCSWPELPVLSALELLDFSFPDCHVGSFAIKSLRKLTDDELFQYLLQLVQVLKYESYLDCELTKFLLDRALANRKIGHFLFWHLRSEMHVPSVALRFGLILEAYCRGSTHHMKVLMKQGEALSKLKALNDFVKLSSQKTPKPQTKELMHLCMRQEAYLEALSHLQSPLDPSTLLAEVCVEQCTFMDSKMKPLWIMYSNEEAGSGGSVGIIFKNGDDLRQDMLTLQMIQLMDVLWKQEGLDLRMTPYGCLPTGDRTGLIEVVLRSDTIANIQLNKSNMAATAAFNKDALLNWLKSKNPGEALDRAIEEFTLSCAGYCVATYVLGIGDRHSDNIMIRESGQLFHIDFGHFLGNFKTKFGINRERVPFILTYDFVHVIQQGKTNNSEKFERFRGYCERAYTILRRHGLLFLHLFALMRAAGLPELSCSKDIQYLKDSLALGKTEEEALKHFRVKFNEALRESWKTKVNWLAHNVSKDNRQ

For the next test, the target named is PIP4K2C (UniProt Q8TBX8). The note with it: affinity matrix / lysate: Kinobeads, mixed HEK293/K-562/placenta lysate.
The next test addresses PRKAA2 (UniProt P54646). The note with it: affinity matrix / lysate: Kinobeads, mixed HEK293/K-562/placenta lysate.
The target of another test is PRKCQ (UniProt Q04759). The note with it: affinity matrix / lysate: Kinobeads, mixed HEK293/K-562/placenta lysate.
The target in the next test is PRKX (UniProt P51817). The settings on record: affinity matrix / lysate: Kinobeads, mixed HEK293/K-562/placenta lysate.
The target in a further test is PTK2B (UniProt Q14289). The note with it: affinity matrix / lysate: Kinobeads, mixed HEK293/K-562/placenta lysate.
The target of another test is TGFBR1 (UniProt P36897). The settings on record: affinity matrix / lysate: Kinobeads, mixed HEK293/K-562/placenta lysate.
The target of a further test is TTK (UniProt P33981). The note with it: affinity matrix / lysate: Kinobeads, mixed HEK293/K-562/placenta lysate.
The target in the next test is YES1 (UniProt P07947). The settings on record: affinity matrix / lysate: Kinobeads, mixed HEK293/K-562/placenta lysate.
Setting [1] is: affinity matrix / lysate: Lipid Kinobeads, mixed HeLa/Jurkat/K-562 lysate.

SMILES strings stand for the structures.

Sequence of PRKAA2 (P54646 whole entry, looked up): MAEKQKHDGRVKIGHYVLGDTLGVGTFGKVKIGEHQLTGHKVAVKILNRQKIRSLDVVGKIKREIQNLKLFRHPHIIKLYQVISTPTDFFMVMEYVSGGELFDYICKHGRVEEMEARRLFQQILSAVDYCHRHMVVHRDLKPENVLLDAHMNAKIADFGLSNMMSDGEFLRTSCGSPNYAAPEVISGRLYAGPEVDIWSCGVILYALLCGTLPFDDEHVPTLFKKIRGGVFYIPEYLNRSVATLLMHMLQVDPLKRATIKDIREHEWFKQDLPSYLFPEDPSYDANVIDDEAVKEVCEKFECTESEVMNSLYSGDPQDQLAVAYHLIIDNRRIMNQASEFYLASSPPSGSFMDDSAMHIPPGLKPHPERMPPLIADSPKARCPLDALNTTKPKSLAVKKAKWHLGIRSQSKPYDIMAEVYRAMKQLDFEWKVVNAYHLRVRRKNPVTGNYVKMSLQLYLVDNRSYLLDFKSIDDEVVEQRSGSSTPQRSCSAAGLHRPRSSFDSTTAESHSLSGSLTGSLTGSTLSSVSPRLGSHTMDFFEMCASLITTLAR
Sequence of PRKX (P51817 whole entry): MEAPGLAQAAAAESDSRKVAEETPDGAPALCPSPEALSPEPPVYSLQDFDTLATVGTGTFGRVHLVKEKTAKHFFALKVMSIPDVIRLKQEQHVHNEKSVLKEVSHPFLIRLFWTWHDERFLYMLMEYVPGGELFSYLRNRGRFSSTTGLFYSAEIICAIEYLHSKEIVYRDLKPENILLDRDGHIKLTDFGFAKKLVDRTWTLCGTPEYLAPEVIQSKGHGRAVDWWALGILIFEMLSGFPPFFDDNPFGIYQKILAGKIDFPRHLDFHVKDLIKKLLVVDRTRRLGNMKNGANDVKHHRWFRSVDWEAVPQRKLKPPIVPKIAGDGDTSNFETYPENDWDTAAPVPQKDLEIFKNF
Sequence of FGFR1 (P11362 whole entry, looked up): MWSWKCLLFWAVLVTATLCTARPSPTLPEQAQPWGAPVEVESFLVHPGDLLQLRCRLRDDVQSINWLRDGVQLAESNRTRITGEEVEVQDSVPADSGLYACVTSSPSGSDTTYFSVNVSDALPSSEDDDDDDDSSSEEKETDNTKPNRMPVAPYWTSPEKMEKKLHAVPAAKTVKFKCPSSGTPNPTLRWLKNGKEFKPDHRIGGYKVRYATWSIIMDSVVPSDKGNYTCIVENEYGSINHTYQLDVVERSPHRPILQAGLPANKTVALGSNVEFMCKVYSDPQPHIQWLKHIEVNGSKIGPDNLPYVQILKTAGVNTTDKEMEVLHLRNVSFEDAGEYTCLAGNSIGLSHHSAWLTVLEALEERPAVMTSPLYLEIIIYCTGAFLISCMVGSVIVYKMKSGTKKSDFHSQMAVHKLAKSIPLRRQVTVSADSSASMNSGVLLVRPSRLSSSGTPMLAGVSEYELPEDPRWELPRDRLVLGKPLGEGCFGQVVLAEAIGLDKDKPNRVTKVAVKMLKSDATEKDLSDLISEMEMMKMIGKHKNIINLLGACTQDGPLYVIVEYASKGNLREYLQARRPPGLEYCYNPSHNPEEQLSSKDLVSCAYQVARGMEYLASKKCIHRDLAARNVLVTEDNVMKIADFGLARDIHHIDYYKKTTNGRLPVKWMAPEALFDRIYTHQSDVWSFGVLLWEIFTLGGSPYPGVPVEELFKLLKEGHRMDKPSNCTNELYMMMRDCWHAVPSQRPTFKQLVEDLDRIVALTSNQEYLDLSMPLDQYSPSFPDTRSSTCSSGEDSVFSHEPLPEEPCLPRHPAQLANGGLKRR
Sequence of MAP3K6 (O95382 whole entry): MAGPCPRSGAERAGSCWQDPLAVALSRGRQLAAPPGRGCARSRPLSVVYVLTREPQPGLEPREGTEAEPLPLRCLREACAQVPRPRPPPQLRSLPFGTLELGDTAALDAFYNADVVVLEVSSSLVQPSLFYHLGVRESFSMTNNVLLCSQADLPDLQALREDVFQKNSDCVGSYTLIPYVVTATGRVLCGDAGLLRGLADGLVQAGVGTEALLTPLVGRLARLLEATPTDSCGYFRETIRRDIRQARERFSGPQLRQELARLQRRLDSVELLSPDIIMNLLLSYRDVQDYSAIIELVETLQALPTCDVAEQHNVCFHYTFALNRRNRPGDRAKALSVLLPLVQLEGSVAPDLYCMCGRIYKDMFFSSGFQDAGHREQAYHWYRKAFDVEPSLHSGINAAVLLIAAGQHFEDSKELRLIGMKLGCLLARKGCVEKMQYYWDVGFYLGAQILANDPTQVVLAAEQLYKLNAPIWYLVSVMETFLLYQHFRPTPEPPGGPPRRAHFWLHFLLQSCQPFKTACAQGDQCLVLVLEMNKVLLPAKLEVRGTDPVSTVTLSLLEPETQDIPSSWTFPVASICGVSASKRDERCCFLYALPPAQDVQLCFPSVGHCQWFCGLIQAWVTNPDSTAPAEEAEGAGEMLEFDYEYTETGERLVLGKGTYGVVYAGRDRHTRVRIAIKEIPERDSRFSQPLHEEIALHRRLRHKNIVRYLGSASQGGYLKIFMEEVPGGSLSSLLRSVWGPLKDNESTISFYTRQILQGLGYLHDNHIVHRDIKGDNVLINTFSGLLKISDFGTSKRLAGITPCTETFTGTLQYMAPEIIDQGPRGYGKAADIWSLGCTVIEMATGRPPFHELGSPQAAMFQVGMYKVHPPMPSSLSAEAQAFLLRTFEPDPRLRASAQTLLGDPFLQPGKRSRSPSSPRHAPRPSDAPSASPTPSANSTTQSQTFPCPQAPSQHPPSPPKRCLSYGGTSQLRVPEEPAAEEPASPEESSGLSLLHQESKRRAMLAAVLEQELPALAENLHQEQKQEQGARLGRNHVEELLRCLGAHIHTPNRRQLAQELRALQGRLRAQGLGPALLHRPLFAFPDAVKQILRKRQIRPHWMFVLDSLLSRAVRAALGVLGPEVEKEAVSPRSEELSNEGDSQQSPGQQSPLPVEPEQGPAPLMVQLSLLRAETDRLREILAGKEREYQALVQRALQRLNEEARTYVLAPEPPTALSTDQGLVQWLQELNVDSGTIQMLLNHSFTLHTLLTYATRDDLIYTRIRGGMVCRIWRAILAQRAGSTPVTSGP
Sequence of PIP4K2C (Q8TBX8 whole entry): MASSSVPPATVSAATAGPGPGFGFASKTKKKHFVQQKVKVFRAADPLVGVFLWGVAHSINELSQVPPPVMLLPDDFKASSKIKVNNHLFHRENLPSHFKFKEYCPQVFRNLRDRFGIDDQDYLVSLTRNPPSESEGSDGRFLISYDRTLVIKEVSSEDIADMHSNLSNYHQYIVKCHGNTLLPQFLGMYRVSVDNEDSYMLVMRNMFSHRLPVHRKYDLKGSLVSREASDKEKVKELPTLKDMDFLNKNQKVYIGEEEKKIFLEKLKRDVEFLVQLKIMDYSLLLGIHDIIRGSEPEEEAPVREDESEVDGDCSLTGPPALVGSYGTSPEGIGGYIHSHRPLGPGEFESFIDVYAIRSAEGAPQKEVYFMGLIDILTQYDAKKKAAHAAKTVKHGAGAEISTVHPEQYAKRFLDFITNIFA
Sequence of PRKCQ (Q04759 whole entry, looked up): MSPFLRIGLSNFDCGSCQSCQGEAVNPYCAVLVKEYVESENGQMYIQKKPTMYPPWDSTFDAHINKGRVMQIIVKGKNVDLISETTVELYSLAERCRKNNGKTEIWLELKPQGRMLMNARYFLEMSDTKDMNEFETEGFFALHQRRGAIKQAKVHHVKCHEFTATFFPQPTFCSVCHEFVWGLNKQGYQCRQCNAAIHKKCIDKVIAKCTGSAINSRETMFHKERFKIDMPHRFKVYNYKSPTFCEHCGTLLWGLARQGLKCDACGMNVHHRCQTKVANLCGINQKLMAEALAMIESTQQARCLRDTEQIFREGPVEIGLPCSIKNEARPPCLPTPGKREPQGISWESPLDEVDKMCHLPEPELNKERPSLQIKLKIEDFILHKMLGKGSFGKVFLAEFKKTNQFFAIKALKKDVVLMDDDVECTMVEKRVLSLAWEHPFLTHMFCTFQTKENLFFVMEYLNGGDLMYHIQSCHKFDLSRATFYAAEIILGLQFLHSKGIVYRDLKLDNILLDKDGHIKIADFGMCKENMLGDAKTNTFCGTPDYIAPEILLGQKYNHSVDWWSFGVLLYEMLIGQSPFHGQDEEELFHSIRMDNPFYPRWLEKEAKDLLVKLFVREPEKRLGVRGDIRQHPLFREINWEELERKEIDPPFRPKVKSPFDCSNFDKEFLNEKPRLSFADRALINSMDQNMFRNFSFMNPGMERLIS
Sequence of YES1 (P07947 whole entry, looked up): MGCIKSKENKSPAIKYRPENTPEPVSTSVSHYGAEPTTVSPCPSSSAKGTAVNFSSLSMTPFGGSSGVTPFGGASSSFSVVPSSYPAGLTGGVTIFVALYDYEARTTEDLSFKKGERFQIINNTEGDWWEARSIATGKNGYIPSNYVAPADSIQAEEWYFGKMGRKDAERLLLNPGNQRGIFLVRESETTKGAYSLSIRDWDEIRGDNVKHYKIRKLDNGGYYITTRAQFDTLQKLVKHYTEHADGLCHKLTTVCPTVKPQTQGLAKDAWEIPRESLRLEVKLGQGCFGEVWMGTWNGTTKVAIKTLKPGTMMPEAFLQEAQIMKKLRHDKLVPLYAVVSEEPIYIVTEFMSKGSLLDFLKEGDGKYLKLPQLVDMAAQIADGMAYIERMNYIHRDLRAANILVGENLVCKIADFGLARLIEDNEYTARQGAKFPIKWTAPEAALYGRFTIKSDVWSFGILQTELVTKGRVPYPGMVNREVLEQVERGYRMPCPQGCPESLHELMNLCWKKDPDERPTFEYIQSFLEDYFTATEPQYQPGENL

In the case of `COc1ccc(-c2ccc3c(N4CCOC[C@@H]4C)nc(N4CCOC[C@@H]4C)nc3n2)cc1CO` [AZD8055], the “apparent dissociation constant (-log10 M)” value at ACVR2A, on CDK2, on CHEK1, at CRKRS, at CSF1R and at DAPK1 was below 6 each time. For the same molecule, the “apparent dissociation constant (-log10 M)” value at DYRK1A, at EPHA1, on EPHB6, on ERBB4, at FGFR1 and at IRAK1 was below 6 throughout. For the same molecule, the “apparent dissociation constant (-log10 M)” value at MAP3K6 is below 6; on MAPK11, below 6; on PIK3CD (setting [1]) it was 6.57; on PIP4K2C it was below 6; at PRKAA2 it was below 6; at PRKCQ, below 6. Moreover, the “apparent dissociation constant (-log10 M)” value on PRKX, on PTK2B, at TGFBR1, at TTK and on YES1 was below 6 in each case.
For `CCNC(=O)Nc1ccc(-c2nc(N3CCOC[C@@H]3C)c3c(n2)C(C)(C)S(=O)(=O)C3)cc1` [CZ415], the “apparent dissociation constant (-log10 M)” value at ACVR2A, on CDK2, on CHEK1, at CRKRS, on CSF1R and on DAPK1 was below 6 in each case. Also, the “apparent dissociation constant (-log10 M)” value on DYRK1A, at EPHA1, at EPHB6, on ERBB4, at FGFR1 and on IRAK1 was below 6 in each case. Also, the “apparent dissociation constant (-log10 M)” value is below 6 on MAP3K6; below 6 at MAPK11; below 6 at PIK3CD (affinity matrix / lysate: Kinobeads, mixed HEK293/K-562/placenta lysate); below 6 at PIK3CD (setting [1]); below 6 at PIP4K2C; below 6 on PRKAA2. The “apparent dissociation constant (-log10 M)” value on PRKCQ, on PRKX, on PTK2B, on TGFBR1, at TTK and on YES1 was below 6 each time.

For the origin of these results see the supplement of paper PMC6315032.
